Reference: PubChem BioAssay (NCI)
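Cultured in 96-well plates, cells were exposed to test compound for 48 hours across five concentrations. At the GI50, growth is halved. TGI denotes the concentration required for complete inhibition of growth.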

What was measured:
Test in all cases: inhibition of tumour cell growth, NCI panel, 48 h
A498 renal = system: A498 renal
ACHN renal = system: ACHN renal
CAKI-1 renal = system: CAKI-1 renal
DU-145 prostate = system: DU-145 prostate
HCC-2998 colon = system: HCC-2998 colon
HL-60(TB) leukemia = system: HL-60(TB) leukemia
HOP-92 NSCLC = system: HOP-92 NSCLC
KM12 colon = system: KM12 colon
MALME-3M melanoma = system: MALME-3M melanoma
MDA-MB-231 breast = system: MDA-MB-231 breast
NCI-H226 lung = system: NCI-H226 lung
NCI-H23 lung = system: NCI-H23 lung
NCI-H460 lung = system: NCI-H460 lung
NCI-H522 lung = system: NCI-H522 lung
NCI/ADR-RES ovarian = system: NCI/ADR-RES ovarian
OVCAR-4 ovarian = system: OVCAR-4 ovarian
OVCAR-5 ovarian = system: OVCAR-5 ovarian
PC-3 prostate = system: PC-3 prostate
RXF 393 renal = system: RXF 393 renal
SF-268 CNS = system: SF-268 CNS
SF-539 CNS = system: SF-539 CNS
SK-MEL-5 melanoma = system: SK-MEL-5 melanoma
SN12C renal = system: SN12C renal
SNB-19 CNS = system: SNB-19 CNS
SNB-75 CNS = system: SNB-75 CNS
SR leukemia = system: SR leukemia
SW-620 colon = system: SW-620 colon
TK-10 renal = system: TK-10 renal
UACC-257 melanoma = system: UACC-257 melanoma
UACC-62 melanoma = system: UACC-62 melanoma
UO-31 renal = system: UO-31 renal

## N=C(N)c1ccc(-c2ccc(-c3cccs3)s2)s1
A498 renal
  GI50: 279 nM
  TGI: 846 nM
ACHN renal
  GI50: 1660 nM
  TGI: 3090 nM
CAKI-1 renal
  GI50: 1570 nM
  TGI: 2950 nM
DU-145 prostate
  GI50: 1520 nM
  TGI: 2970 nM
HCC-2998 colon
  GI50: 1130 nM
  TGI: 2480 nM
HL-60(TB) leukemia
  GI50: 1580 nM
  TGI: 3420 nM
HOP-92 NSCLC
  GI50: 1060 nM
  TGI: 2600 nM
KM12 colon
  GI50: 1470 nM
  TGI: 2920 nM
MALME-3M melanoma
  GI50: 1710 nM
  TGI: 3670 nM
MDA-MB-231 breast
  GI50: 1500 nM
  TGI: 3130 nM
NCI-H226 lung
  GI50: 6890 nM
  TGI: 52400 nM
NCI-H23 lung
  GI50: 1620 nM
  TGI: 3420 nM
NCI-H460 lung
  TGI: 229 nM
NCI-H522 lung
  GI50: 1490 nM
  TGI: 3020 nM
NCI/ADR-RES ovarian
  GI50: 1790 nM
  TGI: 3620 nM
OVCAR-4 ovarian
  GI50: 1330 nM
  TGI: 4160 nM
OVCAR-5 ovarian
  GI50: 1210 nM
  TGI: 2520 nM
PC-3 prostate
  GI50: 1530 nM
  TGI: 2980 nM
RXF 393 renal
  GI50: 290 nM
  TGI: 924 nM
SF-268 CNS
  GI50: 1790 nM
  TGI: 3480 nM
SF-539 CNS
  GI50: 1580 nM
  TGI: 2960 nM
SK-MEL-5 melanoma
  GI50: 1020 nM
  TGI: 2340 nM
SN12C renal
  GI50: 1580 nM
  TGI: 3300 nM
SNB-19 CNS
  GI50: 1560 nM
  TGI: 3070 nM
SNB-75 CNS
  GI50: 1770 nM
  TGI: 3410 nM
SR leukemia
  GI50: 302 nM
  TGI: 895 nM
SW-620 colon
  GI50: 1630 nM
  TGI: 3210 nM
TK-10 renal
  GI50: 1480 nM
  TGI: 2890 nM
UACC-257 melanoma
  GI50: 1660 nM
  TGI: 3110 nM
UACC-62 melanoma
  GI50: 1820 nM
  TGI: 3280 nM
UO-31 renal
  GI50: 318 nM
  TGI: 2100 nM
